Among the data in BindingDB's records for patent US20250289799 (Jiangsu Yahong Meditech Co., 2025) are IC50 values, retold here.

The assay addresses Ubiquitin carboxyl-terminal hydrolase 1/WD repeat-containing protein 48 (Homo sapiens, UniProt O94782+Q8TAF3). Nature of the assay: In Vitro USP1  Inhibitory Activity. The method, then:
Experimental Methods1) Preparation of 1× assay buffer: 1× assay buffer (modified Tris buffer) was prepared;2) Compound dilution: The compound was transferred to the assay plate by Echo.

In general, IC50 refers to the concentration at which inhibition is half-maximal. A lower IC50 goes with inhibition by little substance.

Chain of Ubiquitin carboxyl-terminal hydrolase 1/WD repeat-containing protein 48 (O94782 whole entry): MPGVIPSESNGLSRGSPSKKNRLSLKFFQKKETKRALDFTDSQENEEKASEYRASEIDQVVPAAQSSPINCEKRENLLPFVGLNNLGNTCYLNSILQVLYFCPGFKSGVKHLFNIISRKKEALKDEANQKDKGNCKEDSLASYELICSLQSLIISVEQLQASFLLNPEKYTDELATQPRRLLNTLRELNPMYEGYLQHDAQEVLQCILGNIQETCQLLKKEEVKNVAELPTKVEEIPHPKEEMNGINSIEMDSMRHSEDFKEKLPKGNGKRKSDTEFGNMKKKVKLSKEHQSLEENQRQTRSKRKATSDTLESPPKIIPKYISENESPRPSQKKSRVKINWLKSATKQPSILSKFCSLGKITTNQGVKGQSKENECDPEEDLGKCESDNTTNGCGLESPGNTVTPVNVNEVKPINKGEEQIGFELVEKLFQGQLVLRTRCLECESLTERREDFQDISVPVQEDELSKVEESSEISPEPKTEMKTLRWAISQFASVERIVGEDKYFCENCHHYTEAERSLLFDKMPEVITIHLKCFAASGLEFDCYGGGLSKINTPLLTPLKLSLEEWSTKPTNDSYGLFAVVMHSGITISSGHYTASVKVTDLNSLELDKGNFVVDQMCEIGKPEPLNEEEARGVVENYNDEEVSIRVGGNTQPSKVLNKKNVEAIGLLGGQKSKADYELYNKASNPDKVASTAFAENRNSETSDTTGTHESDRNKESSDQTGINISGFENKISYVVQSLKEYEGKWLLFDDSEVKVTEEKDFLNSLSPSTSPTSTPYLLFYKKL
Chain of Ubiquitin carboxyl-terminal hydrolase 1/WD repeat-containing protein 48 (Q8TAF3 whole entry): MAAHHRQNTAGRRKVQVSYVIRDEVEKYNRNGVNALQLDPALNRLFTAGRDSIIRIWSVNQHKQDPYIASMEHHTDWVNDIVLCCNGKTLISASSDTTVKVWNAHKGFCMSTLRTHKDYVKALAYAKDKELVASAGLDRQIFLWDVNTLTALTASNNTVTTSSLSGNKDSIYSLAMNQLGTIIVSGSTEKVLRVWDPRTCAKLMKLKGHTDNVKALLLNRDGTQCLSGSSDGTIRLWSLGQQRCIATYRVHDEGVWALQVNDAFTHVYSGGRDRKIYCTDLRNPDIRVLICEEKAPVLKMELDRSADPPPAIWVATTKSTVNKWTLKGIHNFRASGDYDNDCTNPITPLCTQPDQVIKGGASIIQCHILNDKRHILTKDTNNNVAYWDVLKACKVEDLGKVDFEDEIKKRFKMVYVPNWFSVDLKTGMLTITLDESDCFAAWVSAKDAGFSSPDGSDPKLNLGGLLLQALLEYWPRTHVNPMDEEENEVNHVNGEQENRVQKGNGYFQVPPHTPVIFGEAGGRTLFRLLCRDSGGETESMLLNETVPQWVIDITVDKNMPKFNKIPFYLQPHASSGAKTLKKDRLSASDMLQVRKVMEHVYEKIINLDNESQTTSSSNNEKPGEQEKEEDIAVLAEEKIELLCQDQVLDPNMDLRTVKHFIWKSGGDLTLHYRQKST

As to `COc1cnc(-c2cccnc2C(C)C)nc1NCc1ccc(-c2nc(C(F)(F)F)cn2C)cc1` [US20250289799, Example 157], the IC50 came out at 2.9 nM.
Then `COc1cnc(-c2cccnc2C(C)C)nc1NCc1ccc(-n2nc(C(F)(F)F)cc2C)cc1` [US20250289799, Example 158], with 2.1 nM.
Then `COc1cnc(-c2ccccc2N(C)C)nc1NCc1ccc(-c2nc(C(F)(F)F)cn2C)cc1` [US20250289799, Example 159], with 1.7 nM; and `COc1cnc(-c2ccccc2N(C)C)nc1NCc1ccc(-n2nc(C(F)(F)F)cc2C)cc1` [US20250289799, Example 160], with 3.6 nM; and `COc1cnc(-c2c(Cl)cnn2C(C)C)nc1N(C)CC1CCN(c2ccccn2)CC1` [US20250289799, Example 161], with 6 nM.
Under `COc1cnc(-c2c(Cl)cnn2C(C)C)nc1NCc1ccc(-c2ccccn2)cc1` [US20250289799, Example 162] stands 3.9 nM.
`COc1cnc(-c2c(Cl)cnn2C(C)C)nc1NCC1CCN(c2nc(C(F)(F)F)cn2C)CC1` [US20250289799, Example 163]: inhibition was half-maximal at 2.3 nM (IC50).
Then `COc1cnc(-c2c(Cl)cnn2C(C)C)nc1NCc1ccc(-c2nc(C(F)(F)F)cn2C)cc1` [US20250289799, Example 164], with 1.1 nM; and `COc1cnc(-c2c(Cl)cnn2C(C)C)nc1NCc1ccc(-n2nc(C(F)(F)F)cc2C)cc1` [US20250289799, Example 165], with 1.4 nM; and `CC(C)n1ncc(Cl)c1-c1nc(NCc2ccc(-c3ccccn3)cc2)c2occc2n1` [US20250289799, Example 166], with 2.1 nM.
In turn, `CC(C)n1ncc(Cl)c1-c1nc(NCc2ccc(-c3nc(C(F)(F)F)cn3C)cc2)c2occc2n1` [US20250289799, Example 167] had a half-inhibitory concentration (IC50) of 0.45 nM.
Under `Cc1cc(C(F)(F)F)nn1-c1ccc(CNc2nc(-c3c(Cl)cnn3C(C)C)nc3ccoc23)cc1` [US20250289799, Example 168] stands 1.2 nM.
`COc1cnc(-c2ccccc2C2CC2)nc1NCc1ccc(-c2nc(C(F)(F)F)cn2C)cc1` [US20250289799, Example 169] came in with a concentration for half-maximal inhibition (IC50) of 0.8 nM.
Then `COc1cnc(-c2ccccc2C2CC2)nc1NCc1ccc(-n2nc(C(F)(F)F)cc2C)cc1` [US20250289799, Example 170], with 2.9 nM; and `COc1cc(-c2nc(C(F)(F)F)cn2C)ccc1CNc1nc(-c2ccccc2C2CC2)ncc1OC` [US20250289799, Example 171], with 2.3 nM; and `COc1cc(CNc2nc(-c3ccccc3C3CC3)ncc2OC)ccc1-c1nc(C(F)(F)F)cn1C` [US20250289799, Example 172], with 12 nM.
For `Cn1cc(C(F)(F)F)nc1-c1ccc(CNc2nc(-c3ccccc3C3CC3)nc3ccoc23)cc1` [US20250289799, Example 173], it took 1 nM to reach half-maximal inhibition (IC50). Against the preceding compound, the IC50 is about 12-fold lower.
Under `Cc1cc(C(F)(F)F)nn1-c1ccc(CNc2nc(-c3ccccc3C3CC3)nc3ccoc23)cc1` [US20250289799, Example 174] stands 5.1 nM.
`COc1cc(-c2nc(C(F)(F)F)cn2C)ccc1CNc1nc(-c2ccccc2C2CC2)nc2ccoc12` [US20250289799, Example 175]: the IC50 turned out to be 3.6 nM. This IC50 and that of the compound before are within 1.5-fold of each other.
`COc1cc(CNc2nc(-c3ccccc3C3CC3)nc3ccoc23)ccc1-c1nc(C(F)(F)F)cn1C` [US20250289799, Example 176]: the IC50 amounted to 4 nM.
As for `COc1cnc(-c2c(OC)cnn2C(C)C)nc1N(C)CC1CCN(c2ccccn2)CC1` [US20250289799, Example 177], the midpoint of inhibition, the IC50, lay at 75 nM.
Then `COc1cnc(-c2c(OC)cnn2C(C)C)nc1NCc1ccc(-c2ccccn2)cc1` [US20250289799, Example 178], with 110 nM; and `COc1cnc(-c2c(OC)cnn2C(C)C)nc1NCC1CCN(c2nc(C(F)(F)F)cn2C)CC1` [US20250289799, Example 179], with 56 nM.
Then `COc1cnc(-c2c(OC)cnn2C(C)C)nc1NCc1ccc(-c2nc(C(F)(F)F)cn2C)cc1` [US20250289799, Example 180], with 15 nM; and `COc1cnn(C(C)C)c1-c1nc(NCc2ccc(-c3ccccn3)cc2)c2occc2n1` [US20250289799, Example 181], with 27 nM; and `COc1cnn(C(C)C)c1-c1nc(NCc2ccc(-n3nc(C(F)(F)F)cc3C)cc2)c2occc2n1` [US20250289799, Example 182], with 7.4 nM.
Then `COc1cnc(-c2c(OC)cnn2C2CC2)nc1NCc1ccc(-c2ccccn2)cc1` [US20250289799, Example 183], with 164 nM; and `COc1cnc(-c2c(OC)cnn2C2CC2)nc1NCC1CCN(c2nc(C(F)(F)F)cn2C)CC1` [US20250289799, Example 184], with 94 nM.
`COc1cnn(C2CC2)c1-c1ncc(OC(F)F)c(NCc2ccc(-c3nc(C(F)(F)F)cn3C)cc2)n1` [US20250289799, Example 185] came in with an IC50 of 9.8 nM. This IC50 is about 9.6-fold lower than that of the compound before.
Then `COc1cnc(-c2c(C)noc2C(C)C)nc1N(C)CC1CCN(c2ccccn2)CC1` [US20250289799, Example 186], with 66 nM; and `COc1cnc(-c2c(C)noc2C(C)C)nc1NCC1CCN(c2nc(C(F)(F)F)cn2C)CC1` [US20250289799, Example 187], with 23.5 nM.
Then `COc1cnc(-c2c(C)noc2C(C)C)nc1NCc1ccc(-c2nc(C(F)(F)F)cn2C)cc1` [US20250289799, Example 188], with 15 nM; and `Cc1noc(C(C)C)c1-c1nc(NCc2ccc(-c3ccccn3)cc2)c2occc2n1` [US20250289799, Example 189], with 16 nM; and `Cc1noc(C(C)C)c1-c1ncc(OC(F)F)c(NCc2ccc(-c3nc(C(F)(F)F)cn3C)cc2)n1` [US20250289799, Example 190], with 33 nM.
Then `COc1cnc(-c2c(Cl)cnn2C2CC2)nc1N(C)Cc1ccc(-c2nc(C(F)(F)F)cn2C)cc1` [US20250289799, Example 191], with 4.3 nM; and `COc1cnc(-c2c(Cl)cnn2C2CC2)nc1NCc1ccc(-c2nc(C(F)(F)F)cn2C)cc1` [US20250289799, Example 192], with 3.8 nM.
On to `COc1cnc(-c2cncnc2C2CC2)nc1N(C)Cc1ccc(-c2nc(C(F)(F)F)cn2C)cc1` [US20250289799, Example 193], for which half-maximal inhibition (IC50) was put at 87 nM.
In turn, `COc1cnc(-c2cncnc2C2CC2)nc1NCc1ccc(-c2nc(C(F)(F)F)cn2C)cc1` [US20250289799, Example 194] gave an IC50 of 51 nM.
Then `COc1cnc(-c2cncnc2C2CC2)nc1NCc1ccc(-c2nc(C(F)F)cn2C)cc1` [US20250289799, Example 195], with 243 nM; and `Cn1cc(C(F)(F)F)nc1-c1ccc(CNc2nc(-c3cncnc3C3CC3)nc3ccoc23)cc1` [US20250289799, Example 196], with 12 nM; and `Cn1cc(C(F)F)nc1-c1ccc(CNc2nc(-c3cncnc3C3CC3)nc3ccoc23)cc1` [US20250289799, Example 197], with 133 nM.
`COc1cnc(-c2c(C)cnn2C2CC2)nc1N(C)Cc1ccc(-c2nc(C(F)(F)F)cn2C)cc1` [US20250289799, Example 198] came in with a 50% inhibitory concentration (IC50) of 3.2 nM.
Then `COc1cnc(-c2c(C)cnn2C2CC2)nc1NCc1ccc(-c2nc(C(F)(F)F)cn2C)cc1` [US20250289799, Example 199], with 5.6 nM.
Then `COc1cnc(-c2c(C)cnn2C(C)C)nc1N(C)Cc1ccc(-c2nc(C(F)(F)F)cn2C)cc1` [US20250289799, Example 200], with 2.8 nM; and `COc1cnc(-c2c(C)cnn2C(C)C)nc1N(C)Cc1ccc(-n2nc(C(F)(F)F)cc2C)cc1` [US20250289799, Example 201], with 12 nM; and `COc1cnc(-c2c(C)cnn2C(C)C)nc1NCc1ccc(-c2nc(C(F)(F)F)cn2C)cc1` [US20250289799, Example 202], with 3 nM.
Under `C#Cc1cnc(-c2c(C)cnn2C(C)C)nc1NCc1ccc(-c2nc(C(F)(F)F)cn2C)cc1` [US20250289799, Example 203] stands 1.4 nM.
As for `COc1cnc(-c2c(OC)ncnc2C2CC2)nc1N(O)Cc1ccc(-c2nc(C(F)(F)F)cn2C)cc1` [US20250289799, Example 204], the half-inhibitory concentration (IC50) is 25 nM.
Compound `COc1cnc(-c2c(C)cnn2C2CC2)nc1N(O)Cc1ccc(-c2nc(C(F)(F)F)cn2C)cc1` [US20250289799, Example 205] had an IC50 of 43 nM.
Then `COc1cnc(-c2c(OC)ncnc2C2CC2)nc1N(C#N)Cc1ccc(-c2nc(C(F)(F)F)cn2C)cc1` [US20250289799, Example 206], with 3.5 nM; and `COc1cnc(-c2c(OC)ncnc2C2CC2)nc1N(C)CC12C3C4C1C1C2C3C41c1nc(C(F)(F)F)cn1C` (stereo not given) [US20250289799, Example 207], with 3.5 nM; and `COc1cnc(-c2c(Cl)cnn2C(C)C)nc1NCC12CCC(c3nc(C(F)(F)F)cn3C)(CC1)OC2` [US20250289799, Example 209], with 1.6 nM.
Under `COc1cnc(-c2c(Cl)cnn2C(C)C)nc1N(C)CC12CCC(c3nc(C(F)(F)F)cn3C)(CC1)OC2` [US20250289799, Example 211] stands 6.1 nM; under `COc1cnc(-c2c(OC)ncnc2C2CC2)nc1N(C)CC12CCC(c3nc(C(F)(F)F)cn3C)(CC1)OC2` [US20250289799, Example 212], 19 nM; under `COc1cnc(-c2c(OC)ncnc2C2CC2)nc1NCC12C3C4C1C1C2C3C41c1nc(C(F)(F)F)cn1C1CC1` (stereo not given) [US20250289799, Example 216], 1.4 nM.
